Test results taken from patent publication US20050059585A1, “Methionine aminopeptidase-2 inhibitors and methods of use thereof” (Praecis Pharmaceuticals Inc., priority 2000, published 2005).

Key:
Assay in all cases: tumor cell line panel, SRB growth assay
Format in all cases: cell-based
COLO 205 = conditions: Homo sapiens; COLO 205, Colon, 48 hours
Experimental: (§1) The compound of example 5 was also evaluated against a panel of cancer cell lines (Alley, M.C. et al. […] Cancer Research 48: 589-601; Grever, M. R., et al. (1992) Seminars in Oncology, Vol. 19, No. 6, pp 622-638; Boyd, M. R., and Paull, K. D. (1995) Drug Development Research 34: 91-109). The human tumor cell lines of the cancer screening panel were grown in RPMI 1640 medium containing 5% fetal bovine serum and 2 mM L-glutamine. Cells were inoculated into 96 well microtiter plates in 100 μL at plating densities ranging from 5,000 to 40,000 cells/well depending on the doubling time of individual cell lines. After cell inoculation, the microtiter plates were incubated at 37° C., 5 % CO2, 95 % air and 100 % relative humidity for 24 hours prior to addition of experimental drugs.
(§2) After the 24 hour incubation period, two plates of each cell line were fixed in situ with TCA, to represent a measurement of the cell population for each cell line at the time of drug addition (Tz). Experimental drugs were solubilized in dimethyl sulfoxide at 400-fold the desired final maximum test concentration and stored frozen prior to use. At the time of drug addition, an aliquot of frozen concentrate was thawed and diluted to twice the desired final maximum test concentration with complete medium containing 50 μg/ml gentamicin. Additional four, 10-fold or ½ log serial dilutions were made to provide a total of five drug concentrations plus control. Aliquots of 100 μl of these different drug dilutions were added to the appropriate microtiter wells already containing 100 μl of medium, resulting in the required final drug concentrations.
(§3) Following drug addition, the plates were incubated for an additional 48 hours at 37° C., 5 % CO2, 95 % air, and 100 % relative humidity. For adherent cells, the assay was terminated by the addition of cold TCA. Cells were fixed in situ by the gentle addition of 50 μl of cold 50 % (w/v) TCA (final concentration, 10% TCA) and incubated for 60 minutes at 4° C. The supernatant was discarded, and the plates were washed five times with tap water and air dried. Sulforhodamine B (SRB) solution (100 μl) at 0.4 % (w/v) in 1 % acetic acid were added to each well, and plates were incubated for 10 minutes at room temperature. After staining, unbound dye was removed by washing five times with 1 % acetic acid and the plates were air dried. Bound stain was subsequently solubilized with 10 mM trizma base, and the absorbance was read on an automated plate reader at a wavelength of 515 nm. For suspension of the cells, the methodology used was the same except that the assay was terminated by fixing settled cells at the bottom of the wells by gently adding 50 μl of 80 % TCA (final concentration, 16% TCA). Using the seven absorbance measurements [time zero, (Tz), control growth, (C), and test growth in the presence of drug at the five concentration levels (Ti)], the percentage growth was calculated at each of the drug concentrations levels.
(§4) Percentage growth inhibition was calculated as: [(Ti−Tz)/(C−Tz)]×100 for concentrations for which Ti>/=Tz [(Ti−Tz)/Tz]×100 for concentrations for which Ti<Tz.
(§5) Growth inhibition of 50% (GI50) was calculated from [(Ti−Tz)/(C−Tz)]×100=50, which is the drug concentration resulting in a 50% reduction in the net protein increase (as measured by SRB staining) in control cells during the drug incubation. The G150 was calculated for each of the cell lines if the level of activity is reached; however, if the effect was not reached or is exceeded, the value for that parameter is expressed as greater or less than the maximum (10^−4 M) or minimum (10^−8 M) concentration tested.

UACC-62 = conditions: Homo sapiens; UACC-62, Melanoma, 48 hours
Experimental: as §1, §2, §3, §4, §5

786-0 = conditions: Homo sapiens; 786-0, Renal, 48 hours
Experimental: as §1, §2, §3, §4, §5

TK-10 = conditions: Homo sapiens; TK-10, Renal, 48 hours
Experimental: as §1, §2, §3, §4, §5

EKVX = conditions: Homo sapiens, Non-Small Cell Lung, 48 hours
Experimental: as §1, §2, §3, §4, §5

SNB-19 = conditions: Homo sapiens; SNB-19, CNS, 48 hours
Experimental: as §1, §2, §3, §4, §5

KM12 = conditions: Homo sapiens; KM12, Colon, 48 hours
Experimental: as §1, §2, §3, §4, §5

MDA-N = conditions: Homo sapiens, Breast, 48 hours
Experimental: as §1, §2, §3, §4, §5

NCI-H322M = conditions: Homo sapiens, Non-Small Cell Lung, 48 hours
Experimental: as §1, §2, §3, §4, §5

HOP-62 = conditions: Homo sapiens; HOP-62, Non-Small Cell Lung, 48 hours
Experimental: as §1, §2, §3, §4, §5

NCI-H460 = conditions: Homo sapiens; NCI-H460, Non-Small Cell Lung, 48 hours
Experimental: as §1, §2, §3, §4, §5

SF-295 = conditions: Homo sapiens; SF-295, CNS, 48 hours
Experimental: as §1, §2, §3, §4, §5

SNB-75 = conditions: Homo sapiens; SNB-75, CNS, 48 hours
Experimental: as §1, §2, §3, §4, §5

NCI-H226 = conditions: Homo sapiens; NCI-H226, Non-Small Cell Lung, 48 hours
Experimental: as §1, §2, §3, §4, §5

HL-60(TB) = conditions: Homo sapiens, Leukemia, 48 hours
Experimental: as §1, §2, §3, §4, §5

SK-MEL-5 = conditions: Homo sapiens; SK-MEL-5, Melanoma, 48 hours
Experimental: as §1, §2, §3, §4, §5

SR = conditions: Homo sapiens, Leukemia, 48 hours
Experimental: as §1, §2, §3, §4, §5

HCT-15 = conditions: Homo sapiens; HCT-15, Colon, 48 hours
Experimental: as §1, §2, §3, §4, §5

HT29 = conditions: Homo sapiens, HT-29; HT29, Colon, 48 hours
Experimental: as §1, §2, §3, §4, §5

IGR-OV1 = conditions: Homo sapiens, IGROV-1; IGR-OV1, Ovarian, 48 hours
Experimental: as §1, §2, §3, §4, §5

K-562 = conditions: Homo sapiens, K562; K-562, Leukemia, 48 hours
Experimental: as §1, §2, §3, §4, §5

HS 578T = conditions: Homo sapiens, Breast, 48 hours
Experimental: as §1, §2, §3, §4, §5

SMILES: CO[C@@H]1[C@H](OC(=O)N[C@@H](C(N)=O)C(C)C)CC[C@]2(CO2)[C@H]1[C@@]1(C)O[C@@H]1CC=C(C)C [Example 5, (1-Carbamoyl-2-methyl-propyl)-carbamic acid-(3R, 4S, 5S, 6R )-5-methoxy-4-[(2R, 3R)-2-methyl-3-(3-methyl-but-2-enyl)-oxiranyl]-1-oxa-spiro[2.5]oct-6-yl ester]
- GI50 (COLO 205): < 10 nM
- GI50 (UACC-62): < 10 nM
- GI50 (786-0): 16100 nM
- GI50 (TK-10): 54.3 nM
- GI50 (EKVX): 20800 nM
- GI50 (SNB-19): < 10 nM
- GI50 (KM12): < 10 nM
- GI50 (MDA-N): 1580 nM
- GI50 (NCI-H322M): 46.8 nM
- GI50 (HOP-62): < 10 nM
- GI50 (NCI-H460): < 10 nM
- GI50 (SF-295): < 10 nM
- GI50 (SNB-75): 90900 nM
- GI50 (NCI-H226): 791 nM
- GI50 (HL-60(TB)): 21700 nM
- GI50 (SK-MEL-5): > 100000 nM
- GI50 (SR): < 10 nM
- GI50 (HCT-15): 7130 nM
- GI50 (HT29): 16100 nM
- GI50 (IGR-OV1): < 10 nM
- GI50 (K-562): 64400 nM
- GI50 (HS 578T): 1150 nM
